Source: PubChem BioAssay (NCI)
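Cells were grown in 96-well plates and exposed to each compound for 48 hours at five concentrations; endpoints were interpolated linearly between bracketing concentrations, or set to the highest concentration if not reached. TGI: concentration producing complete growth inhibition.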

What was measured:
Assay in all cases: DTP human tumour cell line panel, 48 h
[1] = test system: HS 578T breast
[2] = test system: NCI-H226 lung
[3] = test system: SF-268 CNS
[4] = test system: MCF7 breast
[5] = test system: SNB-19 CNS
[6] = test system: HOP-62 NSCLC
[7] = test system: IGROV1 ovarian
[8] = test system: SF-295 CNS
[9] = test system: OVCAR-3 ovarian
[10] = test system: LOX IMVI melanoma
[11] = test system: BT-549 breast
[12] = test system: SF-539 CNS
[13] = test system: OVCAR-8 ovarian
[14] = test system: CCRF-CEM leukemia
[15] = test system: MDA-N
[16] = test system: NCI-H23 lung
[17] = test system: HCC-2998 colon

COc1ccccc1N1CCN(CCCN2/C(=C(\O)c3ccccc3)C(=O)c3c(C)cc(C)nc3S2(=O)=O)CC1
TGI [1]: > 100 µM | TGI [2]: 87.9 µM | TGI [3]: > 100 µM | TGI [4]: > 100 µM | TGI [5]: > 100 µM | TGI [6]: > 100 µM | TGI [7]: > 100 µM | TGI [8]: > 100 µM | TGI [9]: > 100 µM | TGI [10]: 50 µM | TGI [11]: > 100 µM | TGI [12]: > 100 µM | TGI [13]: > 100 µM | TGI [14]: > 100 µM | TGI [15]: > 100 µM | TGI [16]: > 100 µM

CC(=O)N[C@@H](Cc1ccc(O)cn1)C(=O)NCc1cccc(Cl)c1
TGI [1]: > 100 µM | TGI [2]: > 100 µM | TGI [3]: > 100 µM | TGI [17]: > 100 µM | TGI [4]: > 100 µM | TGI [5]: > 100 µM | TGI [6]: > 100 µM | TGI [7]: > 100 µM | TGI [8]: > 100 µM | TGI [9]: > 100 µM | TGI [10]: > 100 µM | TGI [11]: > 100 µM | TGI [12]: > 100 µM | TGI [14]: > 100 µM | TGI [15]: > 100 µM | TGI [16]: > 100 µM

CC1ON2CCCC2[C@H]1C(=O)N1C2CC3CCC2(CS1(=O)=O)C3(C)C (stereo partly specified)
TGI [1]: > 100 µM | TGI [2]: > 100 µM | TGI [3]: > 100 µM | TGI [4]: > 100 µM | TGI [6]: > 100 µM | TGI [7]: > 100 µM | TGI [8]: > 100 µM | TGI [9]: > 100 µM | TGI [10]: > 100 µM | TGI [11]: > 100 µM | TGI [12]: > 100 µM | TGI [13]: > 100 µM | TGI [14]: > 100 µM | TGI [15]: > 100 µM | TGI [16]: > 100 µM

O=C(Cc1ccccc1)N/N=C/c1ccccc1O
TGI [1]: > 100 µM | TGI [2]: 81.5 µM | TGI [3]: > 100 µM | TGI [17]: > 100 µM | TGI [4]: > 100 µM | TGI [5]: > 100 µM | TGI [7]: 81.8 µM | TGI [8]: 85.2 µM | TGI [9]: > 100 µM | TGI [10]: > 100 µM | TGI [11]: > 100 µM | TGI [12]: > 100 µM | TGI [13]: > 100 µM | TGI [14]: > 100 µM | TGI [15]: > 100 µM | TGI [16]: > 100 µM

COc1ccc(C2C3=C(Nc4ncnn42)c2ccccc2OC3c2ccccc2)cc1 (stereo unspecified)
TGI [1]: > 100 µM | TGI [3]: > 100 µM | TGI [4]: > 100 µM | TGI [5]: > 100 µM | TGI [6]: > 100 µM | TGI [7]: > 100 µM | TGI [8]: > 100 µM | TGI [9]: > 100 µM | TGI [10]: > 100 µM | TGI [11]: 41.5 µM | TGI [12]: > 100 µM | TGI [13]: > 100 µM | TGI [15]: 44.1 µM | TGI [16]: > 100 µM

COC(=O)C(NC(=O)c1ccccc1)c1ccco1 (stereo unspecified)
TGI [1]: > 100 µM | TGI [2]: > 100 µM | TGI [3]: > 100 µM | TGI [17]: > 100 µM | TGI [4]: > 100 µM | TGI [5]: > 100 µM | TGI [6]: > 100 µM | TGI [7]: > 100 µM | TGI [8]: > 100 µM | TGI [9]: > 100 µM | TGI [11]: > 100 µM | TGI [12]: > 100 µM | TGI [13]: > 100 µM | TGI [14]: > 100 µM | TGI [15]: > 100 µM | TGI [16]: > 100 µM

CCOP(=O)(CN1CCNCCNCC1)OCC
TGI [1]: > 100 µM | TGI [2]: > 100 µM | TGI [17]: > 100 µM | TGI [4]: > 100 µM | TGI [5]: > 100 µM | TGI [6]: > 100 µM | TGI [7]: > 100 µM | TGI [8]: > 100 µM | TGI [9]: > 100 µM | TGI [10]: > 100 µM | TGI [11]: > 100 µM | TGI [12]: > 100 µM | TGI [13]: > 100 µM | TGI [14]: > 100 µM | TGI [15]: > 100 µM

CC(C)Oc1ccc2c(c1)OCC1Cc3ccccc3OC21 (stereo unspecified)
TGI [2]: > 100 µM | TGI [3]: > 100 µM | TGI [17]: > 100 µM | TGI [4]: > 100 µM | TGI [6]: > 100 µM | TGI [7]: > 100 µM | TGI [8]: > 100 µM | TGI [9]: > 100 µM | TGI [10]: > 100 µM | TGI [11]: > 100 µM | TGI [12]: > 100 µM | TGI [13]: > 100 µM | TGI [14]: > 100 µM | TGI [15]: > 100 µM | TGI [16]: > 100 µM

CC(C)(C)c1ccc(-c2nc3ccc(Cl)cc3c(=O)o2)cc1
TGI [1]: > 100 µM | TGI [3]: 77.3 µM | TGI [17]: 27.6 µM | TGI [4]: 61.7 µM | TGI [5]: 80.1 µM | TGI [6]: 49.7 µM | TGI [7]: 87.2 µM | TGI [8]: 58.1 µM | TGI [9]: 34.6 µM | TGI [10]: 31 µM | TGI [11]: 63.6 µM | TGI [12]: 35.8 µM | TGI [13]: 49.3 µM | TGI [14]: 34.2 µM | TGI [15]: 64 µM | TGI [16]: 35 µM

COc1ccc(N2C(=O)C3ON(C(C(N)=O)c4ccccc4)C(c4cc5ccccc5c5ccccc45)C3C2=O)cc1 (stereo unspecified)
TGI [1]: > 50 µM | TGI [2]: > 50 µM | TGI [3]: > 50 µM | TGI [4]: > 50 µM | TGI [5]: > 50 µM | TGI [6]: > 50 µM | TGI [7]: > 50 µM | TGI [8]: > 50 µM | TGI [9]: > 50 µM | TGI [10]: > 50 µM | TGI [11]: > 50 µM | TGI [12]: > 50 µM | TGI [13]: > 50 µM | TGI [14]: > 50 µM | TGI [15]: 35.6 µM | TGI [16]: > 50 µM

COc1cc2c(cc1OC)CCc1cc(OC)c(OC)cc1CC2
TGI [1]: > 100 µM | TGI [2]: > 100 µM | TGI [17]: > 100 µM | TGI [4]: > 100 µM | TGI [5]: > 100 µM | TGI [6]: > 100 µM | TGI [7]: > 100 µM | TGI [8]: > 100 µM | TGI [9]: > 100 µM | TGI [10]: > 100 µM | TGI [11]: > 100 µM | TGI [12]: > 100 µM | TGI [13]: > 100 µM | TGI [14]: > 100 µM | TGI [15]: > 100 µM | TGI [16]: > 100 µM
